The text below walks through data of ChEMBL document CHEMBL1151900, “Steroidal bivalent ligands for the estrogen receptor: design, synthesis, characterization and binding affinities” (Bioorg Med Chem, 2009).

Experiment [1] addresses T1, Estrogen receptor (Homo sapiens) (UniProt P03372).
T1 sequence (whole entry): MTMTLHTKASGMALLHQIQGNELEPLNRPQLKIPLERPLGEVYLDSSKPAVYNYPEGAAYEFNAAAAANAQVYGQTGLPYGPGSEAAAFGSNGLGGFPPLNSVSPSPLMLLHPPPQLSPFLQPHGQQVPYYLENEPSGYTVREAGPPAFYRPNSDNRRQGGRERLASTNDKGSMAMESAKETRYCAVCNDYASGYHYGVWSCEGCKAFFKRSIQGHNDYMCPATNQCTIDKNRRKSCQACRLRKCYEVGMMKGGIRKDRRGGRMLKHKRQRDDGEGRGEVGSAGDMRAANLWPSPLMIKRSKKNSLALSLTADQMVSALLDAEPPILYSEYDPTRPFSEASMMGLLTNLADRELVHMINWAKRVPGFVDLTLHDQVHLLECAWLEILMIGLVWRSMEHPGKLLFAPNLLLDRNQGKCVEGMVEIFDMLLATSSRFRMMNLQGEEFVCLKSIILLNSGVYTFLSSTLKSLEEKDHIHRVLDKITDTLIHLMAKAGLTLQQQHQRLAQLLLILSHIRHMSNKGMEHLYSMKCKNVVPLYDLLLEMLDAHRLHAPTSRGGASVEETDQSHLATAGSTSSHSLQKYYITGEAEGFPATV
The experiment can be described thus: Displacement of [3H]estradiol from full-length human estrogen receptor alpha by radiometric assay relative to estradiol. In general terms: In a radioligand displacement assay an active substance lowers the binding of a labelled ligand.

The target of experiment [2] is Estrogen receptor beta (Homo sapiens) (UniProt Q92731). Kind of experiment: Displacement of [3H]estradiol from full-length human estrogen receptor beta by radiometric assay relative to estradiol.
Sequence of Estrogen receptor beta (Homo sapiens) (Q92731 whole entry): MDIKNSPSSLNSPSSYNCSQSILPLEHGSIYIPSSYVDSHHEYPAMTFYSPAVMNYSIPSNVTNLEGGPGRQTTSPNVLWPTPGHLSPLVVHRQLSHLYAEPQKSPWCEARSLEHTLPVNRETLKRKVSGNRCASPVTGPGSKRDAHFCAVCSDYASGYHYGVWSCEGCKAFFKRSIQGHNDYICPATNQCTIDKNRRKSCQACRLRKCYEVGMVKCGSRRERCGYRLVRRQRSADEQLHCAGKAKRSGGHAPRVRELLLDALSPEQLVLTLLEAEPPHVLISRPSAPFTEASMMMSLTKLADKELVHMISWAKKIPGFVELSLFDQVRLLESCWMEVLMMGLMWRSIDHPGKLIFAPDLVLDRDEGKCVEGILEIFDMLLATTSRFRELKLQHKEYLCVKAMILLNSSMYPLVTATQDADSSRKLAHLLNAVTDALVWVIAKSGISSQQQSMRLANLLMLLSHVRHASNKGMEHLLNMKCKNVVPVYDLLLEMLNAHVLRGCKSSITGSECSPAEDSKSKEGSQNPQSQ

Consider `C[C@]12CC[C@@H]3c4ccc(O)cc4CC[C@H]3[C@@H]1CC[C@@]2(O)C#Cc1ccc(OCCOCCOCCOCCOCCOCCOc2ccc(C#C[C@]3(O)CC[C@H]4[C@@H]5CCc6cc(O)ccc6[C@H]5CC[C@@]43C)cc2)cc1`, for which the RBA was 1.2% in experiment [1] and 0.68% in experiment [2].
For the compound `C[C@]12CC[C@@H]3c4ccc(O)cc4CC[C@H]3[C@@H]1CC[C@@]2(O)C#Cc1ccc(OCCCOCCCOCCCOc2ccc(C#C[C@]3(O)CC[C@H]4[C@@H]5CCc6cc(O)ccc6[C@H]5CC[C@@]43C)cc2)cc1`, the RBA in experiment [1] worked out at 2.1%; in experiment [2], 0.53%.
On to `C[C@]12CC[C@@H]3c4ccc(O)cc4CC[C@H]3[C@@H]1CC[C@@]2(O)C#Cc1ccc(OCCCOCCCOCCCOCCCOc2ccc(C#C[C@]3(O)CC[C@H]4[C@@H]5CCc6cc(O)ccc6[C@H]5CC[C@@]43C)cc2)cc1`, for which the RBA in experiment [1] amounted to 6.9%; in experiment [2], 0.003%.
Turning to `C[C@]12CC[C@@H]3c4ccc(O)cc4CC[C@H]3[C@@H]1CC[C@@]2(O)C#Cc1ccc(OCCCCOCCCCOCCCCOCCCCOCCCOc2ccc(C#C[C@]3(O)CC[C@H]4[C@@H]5CCc6cc(O)ccc6[C@H]5CC[C@@]43C)cc2)cc1`, the RBA was determined as 1.6% in experiment [1] and 0.22% in experiment [2].
As for `C[C@]12CC[C@@H]3c4ccc(O)cc4CC[C@H]3[C@@H]1CC[C@@]2(O)C#Cc1ccc(OCCCOCCCOCCCOCCCOCCCOCCCOc2ccc(C#C[C@]3(O)CC[C@H]4[C@@H]5CCc6cc(O)ccc6[C@H]5CC[C@@]43C)cc2)cc1`, the results for the RBA in experiment [1] and in experiment [2] were 1.5% and 0.38%, respectively.
For `C[C@]12CC[C@@H]3c4ccc(O)cc4CC[C@H]3[C@@H]1CC[C@@]2(O)C#Cc1ccc(CNCCOCCOCCOCCOCCOCCNCc2ccc(C#C[C@]3(O)CC[C@H]4[C@@H]5CCc6cc(O)ccc6[C@H]5CC[C@@]43C)cc2)cc1`, the RBA in experiment [1] came to 6.8%; in experiment [2], 3.6%.
Taken in the same sequence, the figures for `C[C@]12CC[C@@H]3c4ccc(O)cc4CC[C@H]3[C@@H]1CC[C@@]2(O)C#Cc1ccc(OCCCCOCCCCOCCCCOc2ccc(C#C[C@]3(O)CC[C@H]4[C@@H]5CCc6cc(O)ccc6[C@H]5CC[C@@]43C)cc2)cc1` were 4.5% and 1.5%.
`C[C@]12CC[C@@H]3c4ccc(O)cc4CC[C@H]3[C@@H]1CC[C@@]2(O)C#Cc1ccc(OCCCCOCCCCOc2ccc(C#C[C@]3(O)CC[C@H]4[C@@H]5CCc6cc(O)ccc6[C@H]5CC[C@@]43C)cc2)cc1`: the RBA in experiment [1] amounted to 1.8%; in experiment [2], 0.82%.
In the same order, the values of `C[C@]12CC[C@@H]3c4ccc(O)cc4CC[C@H]3[C@@H]1CC[C@@]2(O)C#Cc1ccc(OCCCOCCCOc2ccc(C#C[C@]3(O)CC[C@H]4[C@@H]5CCc6cc(O)ccc6[C@H]5CC[C@@]43C)cc2)cc1` are 0.9% and 0.38%.
`C[C@]12CC[C@@H]3c4ccc(O)cc4CC[C@H]3[C@@H]1CC[C@@]2(O)C#Cc1ccc(OCCCOCCCOCCCOCCCOCCCOc2ccc(C#C[C@]3(O)CC[C@H]4[C@@H]5CCc6cc(O)ccc6[C@H]5CC[C@@]43C)cc2)cc1`: the RBA came to 2.3% in experiment [1] and 0.69% in experiment [2].
Regarding `C[C@]12CC[C@@H]3c4ccc(O)cc4CC[C@H]3[C@@H]1CC[C@@]2(O)C#Cc1ccc(OCCCCOCCCCOCCCCOCCCCOc2ccc(C#C[C@]3(O)CC[C@H]4[C@@H]5CCc6cc(O)ccc6[C@H]5CC[C@@]43C)cc2)cc1`, the RBA amounted to 2.6% in experiment [1] and 0.76% in experiment [2].
